Laboratory results reported in patent US8338420B1, “Treatment of Parkinson's disease and enhancement of dopamine signal using PDE 10 inhibitor” (Mitsubishi Tanabe Pharma Corporation, priority 2002, dated 2012).

Legend:
[1] = Brain uptake (integration plot method, PS) and PDE10 binding occupancy in the brain; type: in vivo; conditions: rat, 1 mg/kg, i.v.
Description: Different from other tissue, the brain has the blood brain barrier (BBB) to restrict and regulate the movement of molecules between the blood and the brain. BBB consists of brain capillary endothelial cells. The brain capillary endothelial cells are connected through tight junction, and nutrients and drugs in the blood are required to pass transcellularly through the brain capillary endothelial cells. As a mechanism for the drugs to pass through the BBB, there are mentioned the following five routes; 1) passive diffusion, 2) carrier-mediated transport, 3) receptor-mediated transcytosis, 4) absorptive-mediated transcytosis and 5) active efflux transport by P-glycoprotein. The rate of the compound to pass through the BBB and enter the brain (PS) via one or plurals of these mechanisms can be measured by known in vivo experimental assays such as in situ brain perfusion, integration plot method, etc., or by the known in vitro experimental assays such as primary cultured brain capillary endothelial cells, or an established immortalized brain capillary endothelial cell line, etc. […]
Further, Compound A (1 mg/kg, i.v.) was intravenously administered to rat, and according to integration plot method, a rate (PS) was measured for Compound A to enter the brain by passing through the blood brain barrier (BBB), and occupancy of PDE10 binding in the brain was analyzed.

PDE11 (PDE11A) = biological target: T1, PDE11 (PDE11A) (Homo sapiens, UniProt Q9HCR9); assay: PDE assay, recombinant human PDE11A; type: biochemical; conditions: substrate about 12 nM [3H]-cGMP and 1 μM cGMP
T1 construct: His tag (hexahistidine, pcDNA4/HisMax) (N); made in house
Description: (§1) Based on the information of cDNA sequence of human PDE7A (Genbank/EMBL Accession No. NM002603), a cDNA encoding human PDE7A was cloned by PCR method, according to a method described in Sasaki et al. (Sasaki et al., Biochem. Biophys. Res. Commun., vol. 271, pp. 575-583, 2000). Further, based on the information of cDNA sequence of human PDE8A (Genbank/EMBL Accession No. AF388183), a cDNA encoding human PDE8A was cloned by PCR method, according to a method described in Gamanuma et al. (Gamanuma et al., Cell Signal, 2003, vol. 15, pp. 565-574). Further, a cDNA encoding human PDE11A was obtained, according to a method reported in Yuasa et al. (Yuasa et al., J. Biol. Chem., vol. 275, pp. 31469-31479, 2000). Using these cDNAs, recombinant proteins of human PDE7A, human PDE8A, and human PDE11A were prepared as follows.
(§2) DNA fragments comprising a cDNA encoding human PDE7A, human PDE8A or human PDE11A were linked to pcDNA4/HisMax (available from Invitrogen), to give a vector plasmid for expression of human proteins, with a histidine tag peptide (hexahistidine), added to the N-terminus. COS-7 cells were transfected with these vector plasmids, and the cells were cultured in Dulbecco's modified Eagle medium containing 10% bovine fetal serum for about 24 hours. […]

PDE8 (PDE8A) = biological target: T2, PDE8 (PDE8A) (Homo sapiens, UniProt O60658); assay: PDE assay, recombinant human PDE8A; type: biochemical; conditions: substrate about 4.8 nM [3H]-cAMP and 0.1 μM cAMP
T2 construct: His tag (hexahistidine, pcDNA4/HisMax) (N); made in house
Description: as §1, §2

T1 sequence (Q9HCR9 whole entry): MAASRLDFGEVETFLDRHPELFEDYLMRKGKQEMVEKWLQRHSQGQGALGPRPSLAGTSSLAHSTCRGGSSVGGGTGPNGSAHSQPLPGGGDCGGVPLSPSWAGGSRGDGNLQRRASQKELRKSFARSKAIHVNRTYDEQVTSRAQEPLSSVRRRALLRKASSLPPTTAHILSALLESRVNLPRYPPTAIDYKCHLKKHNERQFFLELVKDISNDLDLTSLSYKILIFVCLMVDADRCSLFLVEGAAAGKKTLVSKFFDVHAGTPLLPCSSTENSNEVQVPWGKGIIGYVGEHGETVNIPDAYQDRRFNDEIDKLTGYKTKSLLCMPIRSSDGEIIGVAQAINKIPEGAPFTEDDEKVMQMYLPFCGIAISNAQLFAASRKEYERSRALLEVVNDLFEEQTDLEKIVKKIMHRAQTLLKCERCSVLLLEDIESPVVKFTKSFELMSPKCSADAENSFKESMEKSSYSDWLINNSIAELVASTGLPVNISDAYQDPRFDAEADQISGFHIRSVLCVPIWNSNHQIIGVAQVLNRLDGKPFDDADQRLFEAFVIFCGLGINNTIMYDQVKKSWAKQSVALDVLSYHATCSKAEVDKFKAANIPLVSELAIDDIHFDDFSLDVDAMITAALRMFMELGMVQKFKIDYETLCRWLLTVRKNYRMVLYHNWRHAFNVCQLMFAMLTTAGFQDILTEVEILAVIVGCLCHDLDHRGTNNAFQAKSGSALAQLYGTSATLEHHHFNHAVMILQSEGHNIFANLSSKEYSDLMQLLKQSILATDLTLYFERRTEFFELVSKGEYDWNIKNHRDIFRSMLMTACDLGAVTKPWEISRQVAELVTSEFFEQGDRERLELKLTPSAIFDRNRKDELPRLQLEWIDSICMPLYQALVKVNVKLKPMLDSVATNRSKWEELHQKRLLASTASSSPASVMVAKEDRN
T2 sequence (O60658 whole entry): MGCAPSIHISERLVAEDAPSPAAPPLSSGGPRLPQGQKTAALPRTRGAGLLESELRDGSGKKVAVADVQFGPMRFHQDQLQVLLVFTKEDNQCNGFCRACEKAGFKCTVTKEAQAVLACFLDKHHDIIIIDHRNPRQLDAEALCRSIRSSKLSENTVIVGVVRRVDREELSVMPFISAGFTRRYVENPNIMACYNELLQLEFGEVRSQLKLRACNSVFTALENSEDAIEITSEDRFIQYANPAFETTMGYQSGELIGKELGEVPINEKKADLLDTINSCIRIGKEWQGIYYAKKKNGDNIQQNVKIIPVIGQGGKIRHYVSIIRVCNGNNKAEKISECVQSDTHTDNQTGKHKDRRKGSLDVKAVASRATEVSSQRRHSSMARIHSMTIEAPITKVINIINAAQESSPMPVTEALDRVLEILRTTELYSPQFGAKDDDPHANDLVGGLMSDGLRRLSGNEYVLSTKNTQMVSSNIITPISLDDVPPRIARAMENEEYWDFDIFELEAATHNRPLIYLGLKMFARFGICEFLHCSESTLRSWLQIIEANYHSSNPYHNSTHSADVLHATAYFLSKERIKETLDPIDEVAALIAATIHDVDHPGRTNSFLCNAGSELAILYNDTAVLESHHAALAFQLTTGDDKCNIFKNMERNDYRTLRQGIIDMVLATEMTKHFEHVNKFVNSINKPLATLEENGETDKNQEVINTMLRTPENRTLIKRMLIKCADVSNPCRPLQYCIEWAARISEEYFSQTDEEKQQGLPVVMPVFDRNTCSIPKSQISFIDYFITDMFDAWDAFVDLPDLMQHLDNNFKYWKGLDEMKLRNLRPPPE

COc1ccc(-c2cc(N3CCCC3)nc(/C=C/c3nc(-n4ccnc4)c4ccccc4n3)n2)cc1OC [Compound A, 2-{(E)-2-[4-(1-imidazolyl)-quinazolin-2-yl]}ethenyl-4-(3,4-dimethoxy)phenyl-6-(pyrrolidin-1-yl)pyrimidine]
occupancy of PDE10 binding in the brain [1]: excellent PDE10 binding behaviors inside the brain
brain uptake and penetration (rate PS through the BBB) ([1]; integration plot method): good brain uptake and penetration characteristics
IC50 (PDE11 (PDE11A)): > 1 µM
IC50 (PDE8 (PDE8A)): > 1 µM
